Measured values from article PMC5007552, “The hVps34‐SGK3 pathway alleviates sustained PI3K/Akt inhibition by stimulating mTORC1 and tumour growth” (The EMBO Journal, 2016).

Tested on: BT-474c cells
Experiment: Immunoblot of mTORC1 pathway markers in BT-474c cells
Assay type: cell-based, human
Details: 5 days 1 μM MK-2206, then 3 μM 14h 1 h
Procedure: SGK3 (upper panel) and S6K1 (middle panel) were immunoprecipitated and subjected to in vitro kinase assay by measuring phosphorylation of the Crosstide substrate peptide in the presence of 0.1 mM [γ‐^32P]ATP in a 30 min 30°C reaction. Kinase reactions are presented as means ± SD for triplicate reaction. Immunoprecipitates (IP) were also analysed by immunoblot with the indicated antibodies. The cell lysates were subjected to immunoblot analysis using the indicated antibodies (bottom panel). Source data are available online for this figure.
HEK293 cells were purchased from the American Tissue Culture Collection (ATCC). Cells were cultured in RPMI or DMEM media supplemented with 10% (v/v) foetal bovine serum, 2 mM L‐glutamine, 100 U/ml penicillin and 0.1 mg/ml streptomycin. Inhibitor treatments were carried out as described in figure legends. During 5 days inhibitor treatments, the media was changed after 72‐h intervals. The cells were lysed in buffer containing 50 mM Tris–HCl (pH 7.5), 150 mM NaCl, 1 mM EDTA, 1 mM EGTA, 1 mM sodium orthovanadate, 10 mM sodium glycerophosphate, 10 mM sodium pyrophosphate, 0.27 M sucrose, 0.1% (v/v) 2‐mercaptoethanol, 1 mM benzamidine and 0.1 mM PMSF. Lysates were clarified by centrifugation at 16,000 g for 10 min at 4°C. Protein concentration was calculated using Bradford assay (Thermo Scientific). […]

Nc1n[nH]c2nc(-c3ccc(NS(=O)(=O)c4cc(Cl)ccc4Cl)cc3)cnc12 [14h]
phosphorylation of TSC2, S6K1 and S6 protein: suppression of phosphorylation of TSC2, S6K1 and its downstream target S6 protein
